Laboratory results: patent publication US7183320B2, “Benzoylsulfonamides and sulfonylbenzamidines for use as antitumour agents” (Eli Lilly and Company, priority 2002, dated 2007)

How the values were obtained:
Format in all cases: in vivo
[1] = system: MURINE COLON ADENOCARCINOMA-38; assay: Early stage murine colon adenocarcinoma-38 (Table II); conditions: BDF1 male mice
Excerpt: (§1) Conventional Murine Tumor and Human Tumor Xenouraft Assays
(§2) Inhibition of tumors transplanted into mice is an accepted procedure for studying the efficacy of antitumor agents (Corbett, et al., In vivo Methods for Screening and Preclinical Testing; Use of rodent solid tumors for drug discovery., In: Anticancer Drug Development Guide: Preclinical Screening, Clinical Trials, and Approval, B. Teicher (ed), Humana Press Inc., Totowa, N.J., Chapter 5, pages 75–99 (1997); (Corbett, et al., Int., J. Parmacog., 33, Supplement, 102–122 (1995)). Murine tumors or human xenographs were implanted essentially as described by Corbett in In vivo Methods for Screening and Preclimical Testing; Use of rodent solid tumors for drug discovery. Briefly, the murine tumor or human xenograph was implanted subcutaneously using either 12-gauge trocar implants or counted number of cells. The location for the trocar insertion is midway between the axillary and inguinal region along the side of the mouse. The trocar is slipped approximately ¾ of an inch subcutaneously up toward the axilla before discharging the tumor fragment, and pinching the skin as the trocar is removed., Alternatively, human tumor cells prepared from a […] of donor tumors (5×10^6 cells) were implanted subcutaneously in a hind-leg of a male or female nude mouse (Charles River). Either a test compound in vehicle or vehicle alone was administered by intravenous bolus injection (iv), intraperitoneal injection (ip), or oral gavage (po). Each treatment group, as well as a group of untreated control animals, consisted of five animals per group in each experiment. Subcutaneous tumor response was monitored by tumor volume measurement performed twice each week over the course of the experiment (60–120 days). Body weights were taken as a general measure of toxicity. The subcutaneous tumor data were analyzed by determining the median tumor weight for each treatment group over the course of the experiment and calculating the tumor growth delay as the difference in days for the treatment versus the control tumors to reach a volume of either 500 or 1000 mm^3.
(§3) The compound of Example 110 was tested against a variety of murine and human tumors substantially as described supra. The parameters measured in each experiment are summarized in the following paragraphs. • Tumor Weight(mg)=(a×b^2)/2 where a=tumor length (mm) and b=tumor width (mm). • Tumor Growth Delay=T−C where T is the median time (days) required for the treatment group tumors to reach a predetermined size, and C is the median time (days) for the control group tumors to reach the same size. Tumor-free survivors are excluded from this calculation, and are tabulated separately (Tumor Free).
(§4) [formula] • where Tumor Growth Delay is as previously defined and Td is tumor volume doubling time (days), estimated from the best fit straight line from a log-linear growth plot of the control group of tumors in exponential growth (100–800 mg range) • % T/C mass—The treatment and control groups are measured when the control group tumors reach approximately 700 to 1200 mg in size (median group). The median tumor weight of each group is determined (including zeros). The T/C value in percent is an indication of antitumor effectiveness. A T/C≦42% is considered significant antitumor activity. A T/C<10% is considered to indicate highly significant antitumor activity. • Body Weight Loss Nadir—A body weight loss nadir (mean of group) of greater than 20% or drug deaths greater than 20% are considered to indicate an excessively toxic dosage in single course trials. • Activity Rating—the Activity Rating is derived from the Log Kill according to the following table: […]

[2] = system: MURINE MAMMARY ADENOCARCINOMA-16/C; assay: Early stage murine mammary adenocarcinoma-16/C (Table III); conditions: C3H female mice
Excerpt: as §1
Briefly, the murine tumor or human xenograph was implanted subcutaneously using either 12-gauge trocar implants or counted number of cells. The location for the trocar insertion is midway between the axillary and inguinal region along the side of the mouse. The trocar is slipped approximately ¾ of an inch subcutaneously up toward the axilla before discharging the tumor fragment, and pinching the skin as the trocar is removed., Alternatively, human tumor cells prepared from a […] of donor tumors (5×10^6 cells) were implanted subcutaneously in a hind-leg of a male or female nude mouse (Charles River). Either a test compound in vehicle or vehicle alone was administered by intravenous bolus injection (iv), intraperitoneal injection (ip), or oral gavage (po). Each treatment group, as well as a group of untreated control animals, consisted of five animals per group in each experiment. […] Body weights were taken as a general measure of toxicity. The subcutaneous tumor data were analyzed by determining the median tumor weight for each treatment group over the course of the experiment and calculating the tumor growth delay as the difference in days for the treatment versus the control tumors to reach a volume of either 500 or 1000 mm^3.
as §3, with “The” for “The compound of Example 110 was tested against a variety of murine and human tumors substantially as described supra. The”
The median tumor weight of each group is determined (including zeros). The T/C value in percent is an indication of antitumor effectiveness.

[3] = system: HUMAN SQUAMOUS CELL LUNG CARCINOMA MRI-H165; assay: Early stage human squamous cell lung carcinoma MRI-H165 xenograft (Table XI); conditions: total dose 600 mg/kg: 100 mg/kg/injection IV on days 3–5 and 10–12; Balb/C SCID female mice
Excerpt: as §1, §2, §3, §4

[4] = total dose 272 mg/kg IV: 20 mg/kg day 3, 40 day 4, 106 mg/kg/injection QD days 5–6
[5] = total dose 920 mg/kg IV: 40 mg/kg day 3, 80 day 4, 160 mg/kg/injection QD days 5–9
[6] = total dose 1200 mg/kg IV: 80 mg/kg day 3, 160 day 4, 240 day 5, 120 mg/kg/injection BID days 7–9
[7] = total dose 560 mg/kg by IV infusion over 3 hours on day 3
[8] = total dose 560 mg/kg: 280 mg/kg by IV infusion on days 3 and 7
[9] = total dose 680 mg/kg IV: 80 mg/kg/injection days 3–6, 120 mg/kg/injection days 7–9

SMILES: O=C(NS(=O)(=O)c1ccccc1)c1ccc(Cl)cc1Cl [Example 110, N-[2,4-dichlorobenzoyl]phenylsulfonamide]
- % BODY WT LOSS AT NADIR [1, 4]: +3.1%
- % T/C MASS [1, 4]: 0%
- ACTIVITY RATING [1, 4]: ++++ (HIGHLY ACTIVE >2.8)
- DRUG DEATHS [1, 4]: 0/5
- GROWTH DELAY (DAYS) [1, 4]: All cures
- LOG KILL [1, 4]: >4.5
- TUMOR FREE AT DAY 144 [1, 4]: 5/5
- % BODY WT LOSS AT NADIR [1, 5]: +7.7%
- % T/C MASS [1, 5]: 0%
- ACTIVITY RATING [1, 5]: ++++ (HIGHLY ACTIVE >2.8)
- DRUG DEATHS [1, 5]: 0/5
- GROWTH DELAY (DAYS) [1, 5]: All cures
- LOG KILL [1, 5]: >4.5
- TUMOR FREE AT DAY 144 [1, 5]: 5/5
- % BODY WT LOSS AT NADIR [1, 6]: −5.2%
- % T/C MASS [1, 6]: 0%
- ACTIVITY RATING [1, 6]: ++++ (HIGHLY ACTIVE >2.8)
- GROWTH DELAY (DAYS) [1, 6]: All cures
- LOG KILL [1, 6]: >4.5
- TUMOR FREE AT DAY 144 [1, 6]: 6/6
- % BODY WT LOSS AT NADIR [2, 7]: DEATH
- ACTIVITY RATING [2, 7]: DEATH
- DRUG DEATHS [2, 7]: 5/5
- GROWTH DELAY (DAYS) [2, 7]: DEATH
- TUMOR FREE AT DAY 14 [2, 7]: 0/5
- % BODY WT LOSS AT NADIR [2, 8]: +10.9%
- % T/C MASS [2, 8]: 37%
- ACTIVITY RATING [2, 8]: + (0.7–1.2)
- DRUG DEATHS [2, 8]: 0/4
- GROWTH DELAY [2, 8]: 2.0 days
- LOG KILL [2, 8]: 0.6
- TUMOR FREE AT DAY 14 [2, 8]: 0/4
- % BODY WT LOSS AT NADIR [2, 9]: +7.6%
- % T/C MASS [2, 9]: 39%
- ACTIVITY RATING [2, 9]: + (0.7–1.2)
- DRUG DEATHS [2, 9]: 0/5
- GROWTH DELAY [2, 9]: 2.5 days
- LOG KILL [2, 9]: 0.75
- TUMOR FREE AT DAY 14 [2, 9]: 0/5
- % BODY WT LOSS AT NADIR [3]: −2.1% ^
- % T/C MASS [3]: 0%
- ACTIVITY RATING [3]: ++++ (HIGHLY ACTIVE >2.8)
- DRUG DEATHS [3]: 0/5
- GROWTH DELAY [3]: 31 days
- LOG KILL [3]: 3.7
- TUMOR FREE AT DAY 55 [3]: 0/5
